Two molecules from BindingDB's records for doi:10.1016/j.bmcl.2016.09.067 (Amgen, 2016) can be followed below.

Experiment [1] addresses Serine/threonine-protein kinase pim-2 (Homo sapiens, UniProt Q9P1W9). The experiment is described as follows: Inhibition of recombinant Pim2 (unknown origin) by electrochemiluminescence assay.
Experiment [2] deals with Serine/threonine-protein kinase pim-1 (Homo sapiens, UniProt P11309). The experiment is described as follows: Inhibition of recombinant Pim1 (unknown origin) by electrochemiluminescence assay.

pIC50: −log10 of the molar value. Where only a bound is given, the exact number is not on record here.

Chain of Serine/threonine-protein kinase pim-2 (Q9P1W9 whole entry): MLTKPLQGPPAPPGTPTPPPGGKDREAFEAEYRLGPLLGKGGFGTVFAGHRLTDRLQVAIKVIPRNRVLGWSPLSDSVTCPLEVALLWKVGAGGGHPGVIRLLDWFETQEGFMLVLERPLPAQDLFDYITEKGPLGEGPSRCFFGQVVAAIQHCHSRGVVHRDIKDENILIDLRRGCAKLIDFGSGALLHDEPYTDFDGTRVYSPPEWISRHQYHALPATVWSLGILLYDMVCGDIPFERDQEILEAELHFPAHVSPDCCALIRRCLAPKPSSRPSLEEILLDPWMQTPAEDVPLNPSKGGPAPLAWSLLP
Chain of Serine/threonine-protein kinase pim-1 (P11309 whole entry): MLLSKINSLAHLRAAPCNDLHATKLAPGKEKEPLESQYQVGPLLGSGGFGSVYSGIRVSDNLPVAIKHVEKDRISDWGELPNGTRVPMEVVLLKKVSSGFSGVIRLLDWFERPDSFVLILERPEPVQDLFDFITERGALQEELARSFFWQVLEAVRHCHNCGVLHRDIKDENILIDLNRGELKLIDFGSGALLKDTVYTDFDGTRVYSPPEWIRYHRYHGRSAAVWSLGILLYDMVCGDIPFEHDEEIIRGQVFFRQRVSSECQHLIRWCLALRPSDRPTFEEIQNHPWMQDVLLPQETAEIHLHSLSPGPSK

Turning to `N[C@H]1CCN(c2ccncc2Nc2ncc3ccc(-c4c(F)cccc4F)nn23)C1` [US9187486, 13], the negative logarithm of the IC50 (pIC50) in experiment [1] was less than 6.00. In the case of `N[C@H]1CCCN(c2cnccc2Nc2ncc3ccc(-c4c(F)cccc4F)nn23)C1` [US9187486, 80], the pIC50 in experiment [1] and in experiment [2] was less than 6.00 throughout.

As usually defined, the pIC50 is the IC50 on a negative log10 scale, so that one unit is a factor of ten.
